Assay results from patent US8796244B2, “Imidazopyridine derivatives as inhibitors of receptor tyrosine kinases” (Astex Therapeutics Ltd, priority 2008, dated 2014).
Where a name gives a salt, the structure may show the parent alone. Read-outs that look alike come from different tables or passages of the source.

How the values were obtained:
[1] = system: LP-1 cell line (FGF-1/Heparin induced pERK); experiment: Cell-based pERK ELISA, LP-1 cells; conditions: Homo sapiens, LP-1, read-out: LP-1 pERK ELISA (μM)
[2] = system: parental wild-type Ba/F3 cells; experiment: Ba/F3 (WT) cell proliferation assay (Alamar Blue); assay type: cell-based; conditions: Mus musculus
VEGFR2 = VEGFR2 (Homo sapiens (Human), UniProt P35968); experiment: VEGFR2 in vitro kinase inhibitory activity assay (TRF, Flt3 substrate); assay type: biochemical
FGFR3 = FGFR3 (Homo sapiens (Human), UniProt P22607); experiment: FGFR3 in vitro kinase inhibitory activity assay (TRF); conditions: 3 h, read-out: FGFR3 % I
Ba/F3-TEL-FGFR3 cells = experiment: Ba/F3-TEL-FGFR3 cell proliferation assay (Alamar Blue); assay type: cell-based
[3] = BaF3, read-out: BaF3 WT prolif, % inhibition
[4] = BaF3, 72 hours, Alamar Blue, read-out: BaF3 WT prolif
[5] = 72 hours, Alamar Blue, read-out: BaF3-TEL-FGFR3 prolif
[6] = BaF3, at 10 μM, read-out: BaF3 WT prolif, % inhibition
[7] = 72 h, read-out: BaF3-TEL-FGFR3 prolif (μM)
[8] = BaF3, 72 h, read-out: BaF3 WT prolif (μM)

Sequence of FGFR3 (P22607 23-806): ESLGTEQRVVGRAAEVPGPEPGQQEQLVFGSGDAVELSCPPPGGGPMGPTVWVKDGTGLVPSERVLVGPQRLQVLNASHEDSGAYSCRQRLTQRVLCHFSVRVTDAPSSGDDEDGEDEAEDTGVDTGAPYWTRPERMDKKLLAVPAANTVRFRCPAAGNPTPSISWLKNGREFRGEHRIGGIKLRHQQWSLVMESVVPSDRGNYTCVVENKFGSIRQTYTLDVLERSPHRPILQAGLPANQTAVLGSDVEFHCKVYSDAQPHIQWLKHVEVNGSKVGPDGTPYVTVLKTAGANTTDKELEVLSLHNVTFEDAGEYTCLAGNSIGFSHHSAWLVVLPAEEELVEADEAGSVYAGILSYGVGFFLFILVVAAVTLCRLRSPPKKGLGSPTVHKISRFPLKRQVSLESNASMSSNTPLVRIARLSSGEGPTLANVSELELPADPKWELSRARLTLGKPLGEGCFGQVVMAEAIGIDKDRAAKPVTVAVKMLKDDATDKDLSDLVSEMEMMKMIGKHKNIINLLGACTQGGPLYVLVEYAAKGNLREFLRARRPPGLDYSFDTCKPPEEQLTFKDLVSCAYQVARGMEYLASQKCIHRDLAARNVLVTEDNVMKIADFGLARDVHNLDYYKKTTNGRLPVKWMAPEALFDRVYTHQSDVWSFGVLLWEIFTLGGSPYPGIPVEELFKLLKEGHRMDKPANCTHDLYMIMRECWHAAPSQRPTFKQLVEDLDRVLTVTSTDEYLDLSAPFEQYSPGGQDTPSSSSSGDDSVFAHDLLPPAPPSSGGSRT
Sequence of VEGFR2 (P35968 20-1356): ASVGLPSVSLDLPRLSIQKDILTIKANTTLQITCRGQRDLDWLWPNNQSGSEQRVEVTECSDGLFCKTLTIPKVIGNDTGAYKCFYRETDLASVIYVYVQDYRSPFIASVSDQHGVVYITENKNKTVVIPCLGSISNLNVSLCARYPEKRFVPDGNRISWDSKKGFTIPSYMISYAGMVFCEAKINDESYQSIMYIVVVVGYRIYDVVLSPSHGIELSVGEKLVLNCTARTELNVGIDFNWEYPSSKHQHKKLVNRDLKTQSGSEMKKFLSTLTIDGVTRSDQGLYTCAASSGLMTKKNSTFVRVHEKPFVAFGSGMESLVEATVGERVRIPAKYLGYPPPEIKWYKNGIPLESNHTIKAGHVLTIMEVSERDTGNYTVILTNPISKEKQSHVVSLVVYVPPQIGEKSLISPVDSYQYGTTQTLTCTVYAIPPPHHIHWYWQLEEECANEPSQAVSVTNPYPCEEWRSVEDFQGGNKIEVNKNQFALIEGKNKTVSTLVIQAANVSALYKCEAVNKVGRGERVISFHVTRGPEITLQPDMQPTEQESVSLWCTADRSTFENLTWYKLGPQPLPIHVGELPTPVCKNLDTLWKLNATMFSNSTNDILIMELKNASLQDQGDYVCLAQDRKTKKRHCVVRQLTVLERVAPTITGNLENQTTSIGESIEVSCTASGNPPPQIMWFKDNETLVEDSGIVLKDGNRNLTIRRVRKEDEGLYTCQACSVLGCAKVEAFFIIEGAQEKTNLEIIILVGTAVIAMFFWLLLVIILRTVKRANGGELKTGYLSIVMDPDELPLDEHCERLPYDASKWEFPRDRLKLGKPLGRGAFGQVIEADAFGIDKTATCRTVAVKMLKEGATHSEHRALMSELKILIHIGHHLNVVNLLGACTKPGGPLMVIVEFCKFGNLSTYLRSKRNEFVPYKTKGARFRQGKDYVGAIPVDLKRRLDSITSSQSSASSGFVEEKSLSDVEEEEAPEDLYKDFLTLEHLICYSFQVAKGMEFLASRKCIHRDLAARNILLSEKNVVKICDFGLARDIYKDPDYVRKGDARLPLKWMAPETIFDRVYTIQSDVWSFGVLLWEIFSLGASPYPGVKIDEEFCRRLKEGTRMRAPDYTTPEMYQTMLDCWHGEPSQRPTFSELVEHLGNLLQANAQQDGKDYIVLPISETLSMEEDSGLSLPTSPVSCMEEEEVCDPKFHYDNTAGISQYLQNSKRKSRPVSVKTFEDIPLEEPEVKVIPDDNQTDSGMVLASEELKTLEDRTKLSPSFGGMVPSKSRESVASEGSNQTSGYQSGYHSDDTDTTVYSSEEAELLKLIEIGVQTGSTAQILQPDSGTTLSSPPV

Structure (SMILES): O=C(NCC(F)(F)F)Nc1cccc(-c2cnc3cc(-c4nccc(N5CCNCC5)n4)ccn23)c1 (as salt: HCl) (hydrate or solvate) [Compound 269]
- melting point: 200 °C

Structure (SMILES): Nc1nc(-c2ccn3c(-c4cccc(NC(=O)NCC(F)(F)F)c4)cnc3c2)ncc1C(=O)O (as salt: HCl) (hydrate or solvate) [Compound 277]
- melting point: > 260 °C

Structure (SMILES): Cc1nnc(-c2ccn3c(-c4cccc(NC(=O)NC5CC5)c4)cnc3c2)o1 [Compound 157B]
- melting point: 229.6 °C

Structure (SMILES): O=C(Nc1cccc(-c2cnc3cc(-c4nncs4)ccn23)c1)NC1CC1 [Compound 158B]
- melting point: 205 °C

Structure (SMILES): N#Cc1cnc(-c2ccn3c(-c4cccc(NC(=O)NCC(F)(F)F)c4)cnc3c2)nc1N [Compound 165B]
- melting point: 161 °C

Structure (SMILES): O=C(NCC(F)(F)F)Nc1cccc(-c2cnc3cc(-c4nnc(NC5CC5)s4)ccn23)c1 [Compound 250]
- melting point: > 280 °C
- IC50 [1]: 0.075 µM
- inhibition at 3 µM [2, 3]: 25%
- IC50 [2, 4]: 1.73 µM

Structure (SMILES): O=C(NCC(F)(F)F)Nc1cc(F)cc(-c2cnc3cc(-c4ccnc(C(F)(F)F)n4)ccn23)c1 [Compound 251]
- melting point: 263 °C
- inhibition at 10 µM [2, 3]: 0%

Structure (SMILES): COc1cc(NC(=O)NCC(F)(F)F)cc(-c2cnc3cc(-c4ncc(F)c(N)n4)ccn23)c1 [Compound 252]
- melting point: 154 °C
- IC50 (VEGFR2): > 1000 nM
- inhibition at 1 µM [2, 3]: 0%

Structure (SMILES): N#Cc1ccnc(-c2ccn3c(-c4cccc(NC(=O)NCC(F)(F)F)c4)cnc3c2)n1 [Compound 253]
- melting point: 210 °C
- IC50 [2, 4]: 1.8 µM

Structure (SMILES): N#Cc1ccc(-c2ccn3c(-c4cccc(NC(=O)NCC(F)(F)F)c4)cnc3c2)nn1 [Compound 255]
- melting point: 267 °C
- inhibition at 10 µM [2, 3]: 0%

Structure (SMILES): CC(C)(O)c1cnc(-c2ccn3c(-c4cccc(NC(=O)NCC(F)(F)F)c4)cnc3c2)nc1 [Compound 257]
- melting point: 146 °C
- IC50 [2, 4]: 3.9 µM

Structure (SMILES): Nc1nc(-c2ccn3c(-c4cc(NC(=O)NCC(F)(F)F)cc(C(F)(F)F)c4)cnc3c2)ncc1F [Compound 258]
- melting point: 185 °C
- inhibition at 1 µM (VEGFR2; 1 h, read-out: VEGFR2 % I): 37%
- inhibition at 3 µM [2, 3]: 36%

Structure (SMILES): Nc1nc(-c2ccn3c(-c4cccc(NC(=O)NCC(F)(F)F)c4)cnc3c2)ncc1CN1CCC1 [Compound 259]
- melting point: 195 °C
- IC50 [2, 4]: 2.6 µM

Structure (SMILES): CN(C)Cc1cnc(-c2ccn3c(-c4cccc(NC(=O)NCC(F)(F)F)c4)cnc3c2)nc1N [Compound 260]
- melting point: 130 °C
- inhibition at 1 µM [2, 3]: 0%

Structure (SMILES): Nc1nnc(-c2ccn3c(-c4cccc(NC(=O)NCC(F)(F)F)c4)cnc3c2)s1 [Compound 261]
- melting point: > 260 °C
- inhibition at 10 µM [2, 3]: 0%

Structure (SMILES): O=C(NCC(F)(F)F)Nc1cccc(-c2cnc3cc(C#Cc4nccn4CCO)ccn23)c1 [Compound 262]
- melting point: 228 °C
- inhibition at 10 µM [2, 3]: 20%

Structure (SMILES): CCNC(=O)Nc1cccc(-c2cnc3cc(C#Cc4cncn4C)ccn23)c1 [Compound 264]
- melting point: 163 °C
- IC50 [1]: 0.31 µM
- inhibition at 10 µM [2, 3]: 25%

Structure (SMILES): Cn1cncc1C#Cc1ccn2c(-c3cncc(NC(=O)NCC(F)(F)F)c3)cnc2c1 [Compound 265]
- melting point: > 250 °C
- IC50 (VEGFR2): > 30000 nM

Structure (SMILES): Cn1cncc1C#Cc1ccn2c(-c3cccc(NC(N)=O)c3)cnc2c1 [Compound 267]
- melting point: 162 °C
- inhibition at 10 µM [2, 3]: 55%

Structure (SMILES): NC(=O)Nc1cccc(-c2cnc3cc(-c4nncs4)ccn23)c1 [Compound 268]
- melting point: 259 °C
- IC50 [1]: 1.83 µM
- inhibition at 3 µM [2, 3]: 23.5%

Structure (SMILES): O=C(NCC(F)(F)F)Nc1cccc(-c2cnc3cc(-c4nccc(N5CCN(CCO)CC5)n4)ccn23)c1 [Compound 270]
- melting point: 179.8 °C
- inhibition at 3 µM [2, 3]: 16%

Structure (SMILES): NCC1CCN(c2ccc(-c3ccn4c(-c5cccc(NC(=O)NCC(F)(F)F)c5)cnc4c3)cn2)CC1 [Compound 271]
- melting point: 80 °C
- inhibition at 0.001 µM (FGFR3): 59%
- IC50 (Ba/F3-TEL-FGFR3 cells; [5]): 0.063 µM
- IC50 [2, 4]: 0.12 µM

Structure (SMILES): CN(C)S(=O)(=O)NCC1CCN(c2ccc(-c3ccn4c(-c5cccc(NC(=O)NCC(F)(F)F)c5)cnc4c3)cn2)CC1 [Compound 272]
- melting point: 145 °C
- inhibition at 0.00097 µM (FGFR3): 51%
- IC50 (Ba/F3-TEL-FGFR3 cells; [5]): 0.051 µM
- IC50 [2, 4]: 0.2 µM

Structure (SMILES): CC(C)COC(=O)Nc1nc(-c2ccn3c(-c4cccc(NC(=O)NCC(F)(F)F)c4)cnc3c2)ncc1F [Compound 273]
- melting point: 215.2 °C
- inhibition at 1 µM (VEGFR2; 1 h, read-out: VEGFR2 % I): 40%
- inhibition at 10 µM [2, 3]: 43%

Structure (SMILES): NCc1cc(NC(=O)NCC(F)(F)F)cc(-c2cnc3cc(-c4ccnc(C(F)(F)F)n4)ccn23)c1 [Compound 274]
- melting point: 190 °C
- inhibition at 1 µM (VEGFR2; 1 h, read-out: VEGFR2 % I): 55%

Structure (SMILES): O=C(NCC(F)(F)F)Nc1cccc(-c2cnc3cc(-c4ncc(CO)cn4)ccn23)c1 [Compound 276]
- melting point: 222 °C
- inhibition at 1 µM [2, 3]: 0%

Structure (SMILES): CC(O)c1cnc(-c2ccn3c(-c4cccc(NC(=O)NCC(F)(F)F)c4)cnc3c2)nc1 (stereo not shown) [Compound 278]
- melting point: 224 °C
- inhibition at 1 µM [2, 3]: 0%

Structure (SMILES): CS(=O)(=O)Nc1nc(-c2ccn3c(-c4cccc(NC(=O)NCC(F)(F)F)c4)cnc3c2)ncc1F [Compound 279]
- melting point: > 350 °C
- inhibition at 10 µM [2, 3]: 7%

Structure (SMILES): COC(=O)c1cc(NC(=O)NCC(F)(F)F)cc(-c2cnc3cc(-c4ccnc(C(F)(F)F)n4)ccn23)c1 [Compound 307]
- inhibition at 0.03 µM (FGFR3): 39%
- inhibition at 10 µM (Ba/F3-TEL-FGFR3 cells; at 10 μM, read-out: BaF3-TEL-FGFR3 prolif, % inhibition): 25%
- inhibition at 1 µM (VEGFR2; 1 h, read-out: VEGFR2 % I): 58%
- inhibition at 10 µM [2, 6]: 0%

Structure (SMILES): CCCCCOC(=O)Nc1nc(-c2ccn3c(-c4cccc(NC(=O)NCC(F)(F)F)c4)cnc3c2)ncc1F [Compound 331]
- inhibition at 0.03 µM (FGFR3): 42%
- IC50 (Ba/F3-TEL-FGFR3 cells; [5]): 1.6 µM
- inhibition at 3 µM (VEGFR2; 1 h, at 3 μM, read-out: VEGFR2 % I): 43%
- inhibition at 10 µM [2, 6]: 60%

Structure (SMILES): CC(C)(CO)n1cc(-c2ccn3c(-c4cccc(NC(=O)NCC(F)(F)F)c4)cnc3c2)cn1 [Example 10, 1-(3-{7-[1-(2-Hydroxy-1,1-dimethylethyl)-1H-pyrazol-4-yl]-imidazo[1,2-a]pyridin-3-yl}phenyl)-3-(2,2,2-trifluoroethyl)urea]
- IC50 [1]: 0.047 µM
- inhibition at 0.001 µM (FGFR3): 50%
- IC50 (Ba/F3-TEL-FGFR3 cells; [5]): 0.3 µM
- IC50 [2, 4]: 2.3 µM

Structure (SMILES): O=C(NCC(F)(F)F)Nc1cccc(-c2cnc3cc(-c4ccc(N5CCNCC5)nn4)ccn23)c1 [Example 23, 1-{3-[7-(6-Piperazin-1-ylpyridazin-3-yl)-imidazo[1,2-a]pyridin-3-yl]phenyl}-3-(2,2,2-trifluoroethyl)urea trifluoroacetate]
- IC50 [1]: 0.63 µM
- inhibition at 0.001 µM (FGFR3): 58%
- IC50 (Ba/F3-TEL-FGFR3 cells; [5]): 0.42 µM
- inhibition at 10 µM [2, 6]: 0%

Structure (SMILES): CC(C)N1CCC(n2cc(-c3ccn4c(-c5cccc(NC(=O)NCC(F)(F)F)c5)cnc4c3)cn2)CC1 [Example 50, 1-(3-{7-[1-(1-Isopropylpiperidin-4-yl)-1H-pyrazol-4-yl]imidazo[1,2-a]pyridin-3-yl}-phenyl)-3-(2,2,2-trifluoroethyl)urea hydrochloride]
- IC50 [1]: 0.021 µM
- inhibition at 0.0003 µM (FGFR3): 39%
- IC50 (Ba/F3-TEL-FGFR3 cells; [5]): 0.029 µM
- IC50 [2, 4]: 0.71 µM

Structure (SMILES): CC(=O)N1CCC(n2cc(-c3ccn4c(-c5cccc(NC(=O)NCC(F)(F)F)c5)cnc4c3)cn2)CC1 [Example 63, 1-(3-{7-[1-(1-Acetyl-piperidin-4-yl)-1H-pyrazol-4-yl]-imidazo[1,2-a]pyridin-3-yl}-phenyl)-3-(2,2,2-trifluoro-ethyl)-urea formate]
- IC50 [1]: 0.05 µM
- inhibition at 0.0003 µM (FGFR3): 50.5%
- IC50 (Ba/F3-TEL-FGFR3 cells; [7]): 0.092 µM
- IC50 [2, 8]: 1.4 µM

Structure (SMILES): O=C(NCC(F)(F)F)Nc1cccc(-c2cnc3cc(-c4ccc(NC5CCOCC5)nn4)ccn23)c1 [Example 66, 1-(3-{7-[6-(Tetrahydro-pyran-4-ylamino)-pyridazin-3-yl]-imidazo[1,2-a]pyridin-3-yl}-phenyl)-3-(2,2,2-trifluoro-ethyl)-urea bis-hydrochloride]
- IC50 [1]: 0.069 µM
- inhibition at 0.0003 µM (FGFR3): 43%
- IC50 (Ba/F3-TEL-FGFR3 cells; [7]): 0.046 µM
- IC50 [2, 8]: 1.9 µM

Structure (SMILES): CC(C)(C(=O)N1CCC1)n1cc(-c2ccn3c(-c4cccc(NC(=O)NCC(F)(F)F)c4)cnc3c2)cn1 [Example 73, 1-(3-{7-[1-(2-Azetidin-1-yl-1,1-dimethyl-2-oxo-ethyl)-1H-pyrazol-4-yl]-imidazo[1,2-a]pyridin-3-yl}-phenyl)-3-(2,2,2-trifluoro-ethyl)-urea]
- IC50 [1]: 0.12 µM
- inhibition at 0.001 µM (FGFR3): 60%
- IC50 (Ba/F3-TEL-FGFR3 cells; [5]): 0.13 µM
- IC50 [2, 4]: 3.7 µM

Structure (SMILES): CS(=O)(=O)N1CCC(n2cc(-c3ccn4c(-c5cccc(NC(=O)NCC(F)(F)F)c5)cnc4c3)cn2)CC1 [Example 74, 1-(3-{7-[1-(1-Methanesulfonyl-piperidin-4-yl)-1H-pyrazol-4-yl]-imidazo [1,2-a]pyridin-3-yl}-phenyl)-3-(2,2,2-trifluoro-ethyl)-urea]
- IC50 [1]: 0.018 µM
- inhibition at 0.0003 µM (FGFR3): 51.5%
- IC50 (Ba/F3-TEL-FGFR3 cells; [5]): 0.096 µM
- IC50 [2, 4]: 0.82 µM

Structure (SMILES): O=C(NCC(F)(F)F)Nc1cccc(-c2cnc3cc(-c4ccnc(-n5ccnc5)n4)ccn23)c1 [Example 215]
- inhibition at 0.1 µM (FGFR3): 39%
- IC50 (Ba/F3-TEL-FGFR3 cells; [5]): 8.8 µM
- IC50 (VEGFR2): > 10000 nM
- IC50 [2, 4]: 10 µM

Structure (SMILES): O=C(NCC(F)(F)F)Nc1cccc(-c2cnc3cc(-c4ccc(C(F)(F)F)nn4)ccn23)c1 [Example 229]
- inhibition at 0.03 µM (FGFR3): 67%
- IC50 (Ba/F3-TEL-FGFR3 cells; [5]): 0.32 µM
- inhibition at 0.3 µM (VEGFR2; 1 h, at 0.3 μM, read-out: VEGFR2 % I): 59%
- IC50 [2, 4]: 5.5 µM
